In brackets after ≈: the same amount, converted by molar mass.
Tests used:
Test in all cases: In vitro antibacterial evaluation: minimum inhibitory concentration (MIC), broth dilution method
Type in all cases: cell-based
Enterococcus sp. = test system: Enterococcus sp.
Procedure, shortened: (§1)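 NCCLS M7-A2 broth dilution with Mueller-Hinton II, testing 64-0.06 μg/mL antibiotic against 5×10^5 CFU/mL inocula. Test strains include recent methicillin-, penicillin- or vancomycin-resistant clinical isolates. MIC is the lowest concentration preventing growth.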

Escherichia coli = test system: Escherichia coli
Procedure, shortened: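 An MIC is reported for each organism as the least concentration giving inhibition, using broth dilution over 64-0.06 μg/mL with a 5×10^5 CFU/mL inoculum.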

Staphylococcus sp. = details: broth dilution, 18 hours at 35° C.
Procedure, shortened: as §1

Streptococcus sp. = test system: Streptococcus sp.
Procedure, shortened: as §1

[1] = broth dilution, inoculum 5×10^5 CFU/mL, 18 hours at 35° C.

## CC(c1ccccc1)C1NC(=O)CNC(=O)C(CO)NC(=O)C(C(O)C2CNC(=N)N2C2OC(CO)C(O)C(O)C2O)NC(=O)C(C(O)C2CNC(=N)N2)NC(=O)C(Cc2ccc(OC3OC(CO)C(OC4OC5COC(c6ccc(-c7cccs7)cc6)OC5C(O)C4O)C(O)C3O)cc2)NC1=O (stereo not drawn) [Example 163, Cyclo[glycyl-β-methylphenylalanyl-O-[4-O-[4,6-O-[4-(2-thienyl)benzylidene]hexopyranosyl]-hexopyranosyl]tyrosyl-3-(2-iminoimidazolidin-4-yl)seryl-3-(3-hexopyranosyl-2-iminoimidazolidin-4-yl)serylseryl]]
Enterococcus sp.; [1]
  MIC Enterococcus avium (GC 4558): 4 mg/L (≈ 2.73 µM)
  MIC Enterococcus faecalis (ATCC 29212): 8 mg/L (≈ 5.46 µM)
  MIC Enterococcus faecalis (GC 2242): 4 mg/L (≈ 2.73 µM)
  MIC Enterococcus faecalis (GC 2691): 4 mg/L (≈ 2.73 µM)
  MIC Enterococcus faecalis (GC 3059): 8 mg/L (≈ 5.46 µM)
  MIC Enterococcus faecalis (GC 4552): 8 mg/L (≈ 5.46 µM)
  MIC Enterococcus faecalis (GC 4553): 4 mg/L (≈ 2.73 µM)
  MIC Enterococcus faecalis (GC 4554): 8 mg/L (≈ 5.46 µM)
  MIC Enterococcus faecalis (GC 6189): 4 mg/L (≈ 2.73 µM)
  MIC Enterococcus faecium (GC 2243): 8 mg/L (≈ 5.46 µM)
  MIC Enterococcus faecium (GC 4556): 4 mg/L (≈ 2.73 µM)
  MIC Enterococcus faecium (GC 4557): 8 mg/L (≈ 5.46 µM)
Enterococcus sp.; strain ATCC 29212
  MIC Enterococcus faecalis (ATCC 29212): 8 mg/L (≈ 5.46 µM)
Enterococcus sp.; strain GC 2242
  MIC Enterococcus faecalis (GC 2242): 4 mg/L (≈ 2.73 µM)
Enterococcus sp.; strain GC 2243
  MIC Enterococcus faecium (GC 2243): 8 mg/L (≈ 5.46 µM)
Enterococcus sp.; strain GC 2691
  MIC Enterococcus faecalis (GC 2691): 4 mg/L (≈ 2.73 µM)
Enterococcus sp.; strain GC 3059
  MIC Enterococcus faecalis (GC 3059): 8 mg/L (≈ 5.46 µM)
Enterococcus sp.; strain GC 4552
  MIC Enterococcus faecalis (GC 4552): 8 mg/L (≈ 5.46 µM)
Enterococcus sp.; strain GC 4553
  MIC Enterococcus faecalis (GC 4553): 4 mg/L (≈ 2.73 µM)
Enterococcus sp.; strain GC 4554
  MIC Enterococcus faecalis (GC 4554): 8 mg/L (≈ 5.46 µM)
Enterococcus sp.; strain GC 4556
  MIC Enterococcus faecium (GC 4556): 4 mg/L (≈ 2.73 µM)
Enterococcus sp.; strain GC 4557
  MIC Enterococcus faecium (GC 4557): 8 mg/L (≈ 5.46 µM)
Enterococcus sp.; strain GC 4558
  MIC Enterococcus avium (GC 4558): 4 mg/L (≈ 2.73 µM)
Enterococcus sp.; strain GC 6189
  MIC Enterococcus faecalis (GC 6189): 4 mg/L (≈ 2.73 µM)
Escherichia coli; strain ATCC 25922
  MIC Escherichia coli (ATCC 25922): >64 mg/L
Escherichia coli; strain GC 4559
  MIC Escherichia coli (GC 4559): 64 mg/L (≈ 43.7 µM)
Escherichia coli; strain GC 4560
  MIC Escherichi coli (GC 4560): 8 mg/L (≈ 5.46 µM)
Staphylococcus sp.; 5×10^5 CFU/mL
  MIC Coagulase Negative Staphylococcus (GC 4547): 8 mg/L (≈ 5.46 µM)
  MIC Coagulase Negative Staphylococcus (GC 4548): 1 mg/L (≈ 0.682 µM)
  MIC Coagulase Negative Staphylococcus (GC 4549): 4 mg/L (≈ 2.73 µM)
  MIC Coagulase Negative Staphylococcus (GC 4551): 2 mg/L (≈ 1.36 µM)
  MIC Coagulase Negative Staphylococcus (GC 6257): 2 mg/L (≈ 1.36 µM)
  MIC Staphylococcus aureus (ATCC 29213): 4 mg/L (≈ 2.73 µM)
  MIC Staphylococcus aureus (GC 1131): 4 mg/L (≈ 2.73 µM)
  MIC Staphylococcus aureus (GC 3051): 8 mg/L (≈ 5.46 µM)
  MIC Staphylococcus aureus (GC 3053): 8 mg/L (≈ 5.46 µM)
  MIC Staphylococcus aureus (GC 4541): 4 mg/L (≈ 2.73 µM)
  MIC Staphylococcus aureus (GC 4542): 4 mg/L (≈ 2.73 µM)
  MIC Staphylococcus aureus (GC 4544): 4 mg/L (≈ 2.73 µM)
  MIC Staphylococcus aureus (GC 4545): 4 mg/L (≈ 2.73 µM)
  MIC Staphylococcus aureus-SMITH (GC 4543): 1 mg/L (≈ 0.682 µM)
  MIC Staphylococcus haemolyticus (GC 4546): 4 mg/L (≈ 2.73 µM)
Staphylococcus sp.; strain ATCC 29213
  MIC Staphylococcus aureus (ATCC 29213): 4 mg/L (≈ 2.73 µM)
Staphylococcus sp.; strain GC 1131
  MIC Staphylococcus aureus (GC 1131): 4 mg/L (≈ 2.73 µM)
Staphylococcus sp.; strain GC 3051
  MIC Staphylococcus aureus (GC 3051): 8 mg/L (≈ 5.46 µM)
Staphylococcus sp.; strain GC 3053
  MIC Staphylococcus aureus (GC 3053): 8 mg/L (≈ 5.46 µM)
Staphylococcus sp.; strain GC 4541
  MIC Staphylococcus aureus (GC 4541): 4 mg/L (≈ 2.73 µM)
Staphylococcus sp.; strain GC 4542
  MIC Staphylococcus aureus (GC 4542): 4 mg/L (≈ 2.73 µM)
Staphylococcus sp.; strain GC 4543
  MIC Staphylococcus aureus-SMITH (GC 4543): 1 mg/L (≈ 0.682 µM)
Staphylococcus sp.; strain GC 4544
  MIC Staphylococcus aureus (GC 4544): 4 mg/L (≈ 2.73 µM)
Staphylococcus sp.; strain GC 4545
  MIC Staphylococcus aureus (GC 4545): 4 mg/L (≈ 2.73 µM)
Staphylococcus sp.; strain GC 4546
  MIC Staphylococcus haemolyticus (GC 4546): 4 mg/L (≈ 2.73 µM)
Staphylococcus sp.; strain GC 4547
  MIC Coagulase Negative Staphylococcus (GC 4547): 8 mg/L (≈ 5.46 µM)
Staphylococcus sp.; strain GC 4548
  MIC Coagulase Negative Staphylococcus (GC 4548): 1 mg/L (≈ 0.682 µM)
Staphylococcus sp.; strain GC 4549
  MIC Coagulase Negative Staphylococcus (GC 4549): 4 mg/L (≈ 2.73 µM)
Staphylococcus sp.; strain GC 4551
  MIC Coagulase Negative Staphylococcus (GC 4551): 2 mg/L (≈ 1.36 µM)
Staphylococcus sp.; strain GC 6257
  MIC Coagulase Negative Staphylococcus (GC 6257): 2 mg/L (≈ 1.36 µM)
Streptococcus sp.; [1]
  MIC Streptococcus agalactiae (GC 4564): <0.5 mg/L
  MIC Streptococcus pneumoniae (ATCC 6301): <0.5 mg/L
  MIC Streptococcus pneumoniae (GC 1894): <0.5 mg/L
  MIC Streptococcus pneumoniae (GC 4565): 1 mg/L (≈ 0.682 µM)
  MIC Streptococcus pyogenes (GC 4563): <0.5 mg/L
Streptococcus sp.; strain ATCC 6301
  MIC Streptococcus pneumoniae (ATCC 6301): <0.5 mg/L
Streptococcus sp.; strain GC 1894
  MIC Streptococcus pneumoniae (GC 1894): <0.5 mg/L
Streptococcus sp.; strain GC 4563
  MIC Streptococcus pyogenes (GC 4563): <0.5 mg/L
Streptococcus sp.; strain GC 4564
  MIC Streptococcus agalactiae (GC 4564): <0.5 mg/L
Streptococcus sp.; strain GC 4565
  MIC Streptococcus pneumoniae (GC 4565): 1 mg/L (≈ 0.682 µM)
